The conditions of this data set: 88 kPa, Liquid, Vibrating tube method.

Structures are written as SMILES. ± gives the expanded uncertainty stated by the source.

Consider `CCCCn1cc[n+](C)c1.F[B-](F)(F)F` [1-butyl-3-methylimidazolium tetrafluoroborate], for which the mass density was 1202.71 ± 4.2 kg/m3 (298.15 K), 1192.29 ± 4.2 kg/m3 (313.15 K) and 1178.73 ± 4.2 kg/m3 (333.15 K).
In the case of `CCCCCCn1cc[n+](C)c1.N#C[S-]` [1-hexyl-3-methylimidazolium thiocyanate], the mass density by setting is: (298.15 K) 1036.21 ± 4.1 kg/m3; (313.15 K) 1027.55 ± 4.1 kg/m3; (333.15 K) 1016.12 ± 4.1 kg/m3.
For `CCCCCCCCn1cc[n+](C)c1.O=[N+]([O-])[O-]` [1-methyl-3-octylimidazolium nitrate], the mass density is on record as 1063.86 ± 4.1 kg/m3 (298.15 K), 1054.55 ± 4.1 kg/m3 (313.15 K) and 1042.42 ± 4.1 kg/m3 (333.15 K).

Usually mass density stands for the mass of a sample divided by its volume.

Values taken from the NIST ThermoML archive (doi:10.1021/acs.jced.5b00894).
